According to US20090004232A1, “BIOACTIVE PHARMACEUTICAL/COSMETIC COMPOSITIONS AND MIXED SOLUBILIZATION PROCESS FOR THE FORMULATION THEREOF” (priority 2005, published 2009):

Assay: Physical stability of the emulsions on storage (phase shift, recrystallization / crystal growth of the active principle)
Type: physicochemical
Experimental: According to the invention, another physical stability parameter observed is, in particular, the absence of recrystallization phenomenon at ambient temperature and at 4° C., over three months.
In the present text, the expression “active principle in dissolved form” means a molecular state dispersion in a liquid, no crystallization of the active principle being visible to the naked eye nor even using a crossed polarization optical microscope, or using other more accurate techniques such as electron microscopy. Preferably, the bioactive principle particles have a size below 1 nm.
Preferably, according to the invention, the expression “active principle in dissolved form” means a molecular state dispersion in a liquid for which no crystallization of the active principle is visible to the naked eye or using an optical microscope.

Q: For `CC/C(=C\C=C\C(O)(CC)CC)c1cccc(OCc2ccc(CO)c(CO)c2)c1` [(4E,6E)-7-[3-(3,4-bishydroxymethylbenzyloxy)phenyl]-3-ethylnona-4,6-dien-3-ol], which “physical stability of the emulsion over time” value (active principle solubilized in a single phase (hydrophilic phase or lipophilic phase)) is on record?
A: The value was “have not made it possible to obtain an emulsion that was physically stable over time”.

Q: What about the “crystal growth phenomena of the active principle” value (single phase solubilization, storage at 4° C.) of the same molecule?
A: Its value is “appeared from the first month”.
